Columns and labels:
[1] = system: mitochondrial and cytosolic aldehyde dehydrogenase; conditions: in vitro; cited from earlier work
[2] = Safety and pharmacokinetic study of different GTN concentrations compared with sub-lingual Nitrostat; format: in vivo, human

For O=[N+]([O-])OCC(CO[N+](=O)[O-])O[N+](=O)[O-] [GTN, Glyceryl trinitrate], the “time of peak rate of formation of nitric oxide from GTN” value [1] is given as “approximately 100 seconds”, the “plasma concentration versus dosage level” value ([2]; in vivo) is given as “increased proportionally with increasing dosage level” and the Tmax ([2]; male, human, in vivo, topical or ocular, pharmacokinetic modelling, topical gel, read-out: Tmax of initial zero order entry into systemic circulation) is given as 10 to 12 min. The “first appearance of GTN after application (lag time)” value ([2]; pharmacokinetic modelling, topical gel) was “around 4 minutes”.

From patent publication US20210000757A1, “TOPICAL COMPOSITION” (Futura Medical Developments Limited, priority 2017, published 2021)
